Here are results for six compounds from paper PMC6451745, “Development and dosimetry of ^203Pb/^212Pb-labelled PSMA ligands: bringing “the lead” into PSMA-targeted alpha therapy?” (European Journal of Nuclear Medicine and Molecular Imaging, 2019).

In data set [1] the test system is C4-2 tumour-bearing mice. The data set can be described thus: Planar scintigraphic imaging in tumour-bearing mice. Type of data set: in vivo. The settings on record: ^203Pb-labelled. The protocol: (§1) The in vivo experiments were carried out in accordance with the laws on animal welfare of the Federal Republic of Germany. For imaging and biodistribution studies, male BALB/c nu/nu mice (20–25 g; Charles River) bearing C4-2 tumour xenografts were used. The mice were inoculated subcutaneously in the right trunk with 5 × 10^6 C4-2 cells in 50% Matrigel in Opti-MEM (1×). For small-animal imaging the mice were anaesthetized with 2% sevoflurane, and then 0.1 nmol (1.0 MBq) of the respective ^203Pb ligand was injected into a tail vein. Serial planar scans were performed using a Gamma Imager-sct (Biospace Lab, Paris, France) with a parallel collimator (35 mm/1.8 mm/0.2 mm) after 10 min, 1 h, 4 h and 24 h. Based on the imaging results, compound CA012 was chosen for biodistribution studies. Experiments were performed in triplicate. For biodistribution, 0.025 nmol (1 MBq) of labelled compound per mouse was administered by injection into a tail vein. After 10 min, 1 h, 4 h and 24 h the mice were killed, the organs were dissected and weighed, and activity was measured using a gamma counter (Packard Cobra Auto-gamma). The organ uptakes were calculated as the percentage of the injected dose per gram of tissue (%ID/g).

In data set [2] the target is T1, PSMA (Homo sapiens, UniProt Q04609).
T1 construct: host or cells: C4-2 cells (LNCaP subline)
T1 sequence (Q04609 whole entry): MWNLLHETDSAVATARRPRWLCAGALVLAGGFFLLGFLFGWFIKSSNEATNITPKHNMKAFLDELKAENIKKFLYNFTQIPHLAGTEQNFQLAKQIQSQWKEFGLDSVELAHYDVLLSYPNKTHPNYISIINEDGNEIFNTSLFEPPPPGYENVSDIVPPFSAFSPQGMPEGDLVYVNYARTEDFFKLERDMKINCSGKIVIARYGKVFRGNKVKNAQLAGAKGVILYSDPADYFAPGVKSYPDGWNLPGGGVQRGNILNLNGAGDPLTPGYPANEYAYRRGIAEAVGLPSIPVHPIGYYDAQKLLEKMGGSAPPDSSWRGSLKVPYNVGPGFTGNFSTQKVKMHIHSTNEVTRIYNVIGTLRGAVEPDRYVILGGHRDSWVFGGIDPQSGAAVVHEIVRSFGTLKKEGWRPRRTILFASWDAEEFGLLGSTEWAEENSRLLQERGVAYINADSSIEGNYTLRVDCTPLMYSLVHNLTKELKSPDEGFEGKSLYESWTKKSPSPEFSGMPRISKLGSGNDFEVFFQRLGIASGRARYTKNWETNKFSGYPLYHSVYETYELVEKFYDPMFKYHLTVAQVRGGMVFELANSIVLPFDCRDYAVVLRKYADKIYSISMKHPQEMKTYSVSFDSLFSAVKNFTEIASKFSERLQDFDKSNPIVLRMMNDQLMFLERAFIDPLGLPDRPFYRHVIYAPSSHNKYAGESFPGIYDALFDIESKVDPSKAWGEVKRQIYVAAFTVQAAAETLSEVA
The data set can be described thus: Competitive binding assay on C4-2 cells. The settings on record: reference ^68Ga-labelled PSMA-HBED-CC dimer (PSMA-10), mean ± SD. On the procedure: (§2) In vitro and in vivo experiments were performed using the PSMA-positive C4-2 cell line, a subline of the LNCaP (lymph node carcinoma of the prostate) cell line (CRL-3314; American Type Culture Collection). C4-2 cells were cultivated in RPMI-1640 (PAN Biotech) supplemented with 10% fetal calf serum and stable glutamine (PAN Biotech). Cells were grown at 37 °C and incubated in humidified air equilibrated with 5% CO2.
A MultiScreenHTS-DV filter plate was incubated at room temperature with 100 μl phosphate-buffered saline (PBS) containing 1% bovine serum albumin (BSA) per well for 30 min. After removal of the PBS/BSA solution, 1 × 10^5 C4-2 cells in Opti-MEM were added to each well. All nonlabelled compounds were dissolved in 300 μl Opti-MEM at the following concentrations: 0, 0.5, 1, 2.5, 5, 10, 25, 50, 100, 500, 1,000 and 5,000 nM. Subsequently, 3 μl of the radiolabelled compound was added, and 50 μl of this mixture was taken to obtain a solution containing 0.75 nM of the radiolabelled ligand. After 45 min incubation at 37 °C, the cells were washed twice with PBS, the radioactivity accumulated in the cells was collected, and the remaining radioactivity was measured in a gamma counter. The inhibitory potency was determined using ^68Ga-labelled PSMA-HBED-CC dimer (i.e. PSMA-10) as the reference. The 50% inhibitory concentration was calculated using a nonlinear regression algorithm (GraphPad Prism 5.01 software). The experiments were performed in quadruplicate.

Data set [3] in a line: Stability of ^203Pb-labelled compounds in human serum. Type of data set: in vitro ADME. As to conditions: 37 °C, up to 72 h, radio-HPLC. The protocol: The conjugates (1 mM in water, 80 μl, 80 nmol) were added to 400 μl sodium acetate buffer (0.4 M in water, pH 5.0), 10 μl ascorbic acid (20% in water) and 140 μl ^203Pb-chloride solution in 0.04 M HCl, with specific activity approximately 102.6 TBq/g (Lantheus Medical Imaging, North Billerica, MA, USA). The mixture was then heated at 95 °C for 5 min. Labelling was controlled by radio-HPLC. The stability of the ^203Pb-labelled compounds was evaluated in 300 μl human serum at 37 °C for up to 72 h. After precipitation of the serum proteins by addition of two parts acetonitrile, the solution was centrifuged for 5 min at 13,000 rpm (twice) and the supernatant was analysed by radio-HPLC (0–100% MeCN over 5 min, monolith column).

The test system of data set [4] is C4-2 cells. The data set can be described thus: Determination of specific internalization ratio. The data set is classed as cell-based. The protocol:
as §2
For determination of the specific internalization ratio, 24-well plates were incubated for 20 min with 0.1% poly-L-lysine in PBS at room temperature and washed once with PBS. In the next step, 1 ml RPMI containing 1 × 10^5 C4-2 cells was added to each well and incubated overnight. The conditions during the experiment for each compound were: incubation at 37 °C or 4 °C with or without receptor blocking via 2-(phosphonomethyl)pentanedioic acid (2-PMPA; Axxora) at a final concentration of 500 μM. The cells were then incubated with 250 μl of a 30 nM solution of ^203Pb-labelled compound. The plates were incubated either for 45 min in a water bath at 37 °C or on ice at 4 °C. The cells were then washed three times with 1 ml ice-cold PBS and incubated with 0.5 ml glycine (50 mM in HCl, pH 2.8) for 5 min. After an additional washing step with 1 ml ice-cold PBS, the cells were lysed with 0.5 ml 0.3 M NaOH and collected, and the radioactivity was measured with a gamma counter for 1 min. The specific cellular uptake was determined as the percentage of initially added radioactivity bound per 10^6 cells (%IA/10^6 cells) by subtraction of the respective uptake under blocking conditions. All experiments were performed in triplicate.

Data set [5] concerns C4-2 tumour-bearing mice. The data set can be described thus: Biodistribution (organ distribution) in tumour-bearing mice. The data set is classed as in vivo. As to conditions: for Organ distribution, Kidneys: 0.025 nmol i.v., n = 3. On the procedure: as §1
On the set-up of data set [6]: method as in PMID 10755652, doi:10.1039/C39890000145, doi:10.1021/ja00130a008. As to conditions: cited from earlier work.
The target of data set [7] is T1, PSMA. Set-up: method as in PMID 25883127. As to conditions: reference compound; cited from earlier work.
The conditions of data set [8]: cited from earlier work.
Details of data set [9]: method as in PMID 25883127. The settings on record: previously determined; cited from earlier work.
The mark [10] stands for this setting: ^203Pb-labelled compound 30 nM, 45 min, 2-PMPA blocking subtracted, mean ± SD n = 3.

SMILES strings stand for the structures. Where two headings read alike, the source gives them in different places.

Broadly, the Ki is a dissociation constant, usually derived from enzyme kinetics or from competition with a known ligand. Low readings indicate higher affinity, high ones lower affinity.

On to `NC(=O)CN1CCN(CC(N)=O)CCN(CC(=O)NC(Cc2ccc3ccccc3c2)C(=O)NCCCC[C@H](NC(=O)N[C@@H](CCC(=O)O)C(=O)O)C(=O)O)CCN(CC(N)=O)CC1` (stereo partly shown) [CA011], for which, in [1] (1 h after injection, Fig. 3), the “tumour uptake in mice (planar scintigraphy)” value is “low tumour uptake”. Also, affinity in data set [2] was put at a Ki of 28.1 ± 2.9 nM. The “stability in human serum” value in data set [3] is reported as “high stability”.
Consider `NC(=O)CN1CCN(CC(N)=O)CCN(CC(=O)NCC2CCC(C(=O)NC(Cc3ccc4ccccc4c3)C(=O)NCCCC[C@H](NC(=O)N[C@@H](CCC(=O)O)C(=O)O)C(=O)O)CC2)CCN(CC(N)=O)CC1` (stereo partly shown) [CA012], for which the “kidney clearance (comparison)” value in [1] (Fig. 4) was “faster kidney clearance than CA009”. Moreover, the specific ligand-induced internalization in [4] worked out at 15.6 ± 2.1 %IA/10^6 cells. In addition, in [4] (setting [10]), the Specific cell surface amounted to 132.1 ± 4.3 %IA/10^6 cells and the “Specific lysate (specific internalization)” value amounted to 15.6 ± 2.1 %IA/10^6 cells. In addition, the affinity in [2], expressed as Ki, was 24.3 ± 3.7 nM. Also, the “stability in human serum” value in data set [3] was “high stability”. Also, in data set [5] (C4-2 tumour-bearing mice, 1 h), the “Organ distribution, Kidneys” value worked out at 5.1 ± 2.5 % ID/g. Further, the “Organ distribution, Kidneys” value in [5] (C4-2 tumour-bearing mice, 24 h) was found to be 0.9 ± 0.1 % ID/g. In [5] (in vivo, C4-2 tumour-bearing mice), the “specific uptake in tumours versus other organs” value is “higher specific uptake in tumours than in other organs”. Besides, the kidney accumulation in data set [5] (mice, after 24 h) turned out to be 2%.
Consider `O=C(O)CN1CCN(CC(=O)O)CCN(CC(=O)O)CCN(CC(=O)O)CC1` [DOTA, 1,4,7,10-tetraazacyclododecane-1,4,7,10-tetraacetic acid], for which the “pH at which stable complexes with lead(II) are formed” value in data set [6] is listed as over 3.5.
Regarding `O=C(O)CC[C@H](NC(=O)N[C@@H](CCCCNC(=O)[C@H](Cc1ccc2ccccc2c1)NC(=O)[C@H]1CC[C@H](CNC(=O)CN2CCN(CC(=O)O)CCN(CC(=O)O)CCN(CC(=O)O)CC2)CC1)C(=O)O)C(=O)O` [PSMA-617], the “affinity (in words)” value in [7] is given as “single-digit affinity”. Besides, the kidney accumulation in data set [8] (mice, after 24 h) was 1%; in [8] (mouse, in vivo, 1 h), 113.3 ± 24.4 %ID/g.
For `NC(=O)CN1CCN(CC(N)=O)CCN(CC(N)=O)CCN(CC(N)=O)CC1` [TCMC, 1,4,7,10-tetra-(2-carbamoyl-methyl)-cyclododecane], the “pH at which stable complexes with lead(II) are formed” value in [6] is over 2.
With `O=C([O-])CN1CCN(CC(=O)[O-])CCN(CC(=O)NCC2CCC(C(=O)N[C@@H](Cc3ccc4ccccc4c3)C(=O)NCCCC[C@H](NC(=O)N[C@@H](CCC(=O)O)C(=O)O)C(=O)O)CC2)CCN(CC(=O)[O-])CC1.[177Lu+3]` (stereo partly shown) [^177Lu-PSMA-617], the specific internalization in [9] was 18 %ID per 10^6cells.
